The source of these data is publication PMC3723632, “A Multi-targeted Drug Candidate with Dual Anti-HIV and Anti-HSV Activity” (PLoS Pathogens, 2013).

≈ marks a conversion by molar mass, not a printed value.

Usually EC50 stands for the concentration giving half of the maximal effect. Lower therefore signals greater potency. In general, inhibition refers to the share of the control response that was lost under treatment.

Assay type in all cases: cell-based
For test [1], the system named is HSV-1 (KOS and clinical isolates). The experiment in a line: microbe, parasite or virus in culture. The settings on record: Human alphaherpesvirus 1, HEL. As to the method:
(§1) Figure 2 Antiherpetic activity of test compounds in cell culture. Confluent HEL cell cultures were exposed to 100 TCID50 of clinical virus isolates [wild-type HSV-1 (panel A), wild-type HSV-2 (panel B), TK^− HSV-1 (panel C) and TK^− HSV-2 (panel D)] in the presence of drugs at different concentrations and incubated for 3 days at 37°C. […] Data shown are the means of at least two independent experiments.

Test [2] relates to HSV-2 (G and clinical isolates). The test is described as follows: microbe, parasite or virus in culture. The settings on record: Human alphaherpesvirus 2, HEL. Here is the method: as §1
Test [3] has as its system HSV-2 (G). The test is described as follows: HSV-2 infection of primary monocyte/macrophage (M/M) cultures. Here is the method:
We obtained human PBMC from the blood of healthy seronegative donors using Ficoll–Hypaque density gradient centrifugation. The PBMC were resuspended in RPMI 1640 medium supplemented with 20% heat-inactivated serum and then seeded into 48-well plates (1.8×10^6 cells/well). M/M were separated by adherence onto plastic. After 5 days, non-adherent cells were carefully removed by repeated gentle washings with warm medium, and adherent M/M were cultured for an additional 3 days to mature and to form a monolayer. M/M were estimated to be 10^5 cells/well at the time of infection. […]. Similarly, macrophage cultures were treated with the same concentrations of adefovir and tenofovir. Macrophage cultures were then infected with HSV-2 (G) (100 TCID50) in the presence of the compounds. After 2 h of adsorption, the cultures were extensively washed to remove any residual virus particles. Fresh complete medium and compounds, at the established concentrations, were then added to the cultures. Appropriate positive (infected but not treated) and mock-infected negative (uninfected and untreated) M/M controls were run for each experiment as well. All assays were performed in triplicate. […] We determined the amount of infectious virus in the supernatants 5–6 days after infection using the cytopathic effect assay. Tenfold serially diluted supernatants were added to confluent monolayers of Vero cells in 96-well plates (100 µl/well, 6 parallel wells). […] The titers of virus produced were calculated according to the Reed and Muench method and expressed as 50% tissue culture infective dose per mL (TCID50/mL).

On to `C[C@H](Cn1cnc2c(N)ncnc21)OCP(=O)(O)O` [Tenofovir, 9-(2-phosphonylmethoxypropyl)adenine], for which the EC50 worked out at 105 ± 20 µg/mL (≈ 366 µM) in test [1] (HSV-1 (KOS)); 151 ± 19 µg/mL (≈ 526 µM) in test [1] (HSV-1, average of six TK-deficient clinical isolates); 125 ± 12 µg/mL (≈ 435 µM) in test [1] (HSV-1, average of six clinical isolates); 122 ± 51 µg/mL (≈ 425 µM) in test [2] (HSV-2 (G)); 121 ± 15 µg/mL (≈ 421 µM) in test [2] (HSV-2, average of seven TK-deficient clinical isolates); 139 ± 11 µg/mL (≈ 484 µM) in test [2] (HSV-2, average of seven clinical isolates). It took 0.2 ± 0.06 µg/mL (≈ 0.696 µM) to reach a half-maximal effect in test [3] (Human alphaherpesvirus 2, HSV-2 (G), human monocyte/macrophages) (EC50). The “Virus production by HSV2-infected macrophages 6 days after infection (CPE reduction)” value in test [3] (0.0032 µg/ml) is on record as 1.2×10^4 TCID50/ml; in test [3] (0.016 µg/ml), 1.3×10^4 TCID50/ml; in test [3] (0.08 µg/ml), 9×10^3 TCID50/ml; in test [3] (0.4 µg/ml), 1.9×10^3 TCID50/ml; in test [3] (10 µg/ml), “No virus”; in test [3] (50 µg/ml) it was “No virus”. The “Cytopathicity (CPE) on macrophages 6 days after infection % CPE” value in test [3] (0.016 µg/ml) was determined as 75%; in test [3] (0.08 µg/ml), 60%; in test [3] (10 µg/ml) it was 10%. Also, the inhibition at 0.0032 µg/mL in test [3] (Human alphaherpesvirus 2, 144 h, 0.0032 µg/ml, M/M, day 6, read-out: Inhibition of viral replication (% to control)) is 14%. Further, the inhibition at 0.016 µg/mL in test [3] (Human alphaherpesvirus 2, 144 h, 0.016 µg/ml, M/M, day 6, read-out: Inhibition of viral replication (% to control)) is 7%. The inhibition at 0.08 µg/mL in test [3] (Human alphaherpesvirus 2, 144 h, 0.08 µg/ml, M/M, day 6, read-out: Inhibition of viral replication (% to control)) came out at 36%. Also, in test [3] (Human alphaherpesvirus 2, 144 h, 0.4 µg/ml, M/M, day 6, read-out: Inhibition of viral replication (% to control)), the inhibition at 0.4 µg/mL amounted to 86%. Further, the inhibition at 2 µg/mL in test [3] (Human alphaherpesvirus 2, 144 h, 2 µg/ml, M/M, day 6, read-out: Inhibition of viral replication (% to control)) was determined as 98%. For the same compound, in test [3] (Human alphaherpesvirus 2, 144 h, 10 µg/ml, M/M, day 6, read-out: Inhibition of viral replication (% to control)), the inhibition at 10 µg/mL came to 100%. The inhibition at 50 µg/mL in test [3] (Human alphaherpesvirus 2, 144 h, 50 µg/ml, M/M, day 6, read-out: Inhibition of viral replication (% to control)) came to 100%. The “inhibition of HSV-2 replication” value in test [3] (M/M, 2- to 10-µg/ml) is on record as “virtually completely inhibited”.
